These results are taken from the pKa sets of Baltruschat and Czodrowski (2020).

The conditions of the first data set: acidic group.
As usually defined, the pKa is the pH at which an ionisable group is half protonated. Low readings indicate a group that gives up its proton readily, high ones a group that holds its proton tightly. Take `O=P([O-])([O-])C([NH2+]Cc1ccccn1)c1ccccc1O` (stereo not given): the pKa amounted to 10.2.

In the case of `O=C(O)c1sccc1[N+](=O)[O-]`, the pKa was determined as 2.68. `CC(=O)c1ccc(CC(=O)O)s1` came in with a pKa of 3.8. Compound `Sc1ccc(Br)cc1` gave a pKa of 5.8. Compound `CC1NCCc2c1[nH]c1ccc(Cl)cc21` (stereo not given) yielded a pKa of 15.2. `Cc1cc(NS(=O)(=O)c2ccc(N)cc2)nc(C)n1` registered a pKa of 7.49. On the same count and under the same terms, with `C[n+]1ccc(O)nc1` the figure was 1.91. Same read-out and setting: with `CC(=O)c1ccc(O)c2ncccc12` the figure was 7.75.

`O=C(O)c1cccc(/C=C/[N+](=O)[O-])c1` yielded a pKa of 3.9. For `CCc1cc(C)cc(O)c1`, the pKa came out at 10.1. As for `C[NH+](C)Cc1cc(Cl)ccc1O`, the pKa was determined as 8.02. As to `O=C1CC(Sc2ccccc2)N1` (stereo not given), the pKa worked out at 13.3.

On to `Oc1cn[nH+]c2ccccc12`, for which the pKa was -0.35. `[NH3+][C@@H](Cc1c[nH]c[nH+]1)C(=O)NCC(=O)O` registered a pKa of 2.4.

On to `Nc1nc2cccc[n+]2o1`, for which the pKa came out at 7.18. With `CCc1c(O)nn(-c2ccccc2)c1C`, the pKa is 12.3. `COc1ccc(NC(=S)c2ccc(OC)cc2)cc1` displayed a pKa of 11.8. The same measure, in the same setting: under `CCSc1nccc(O)[n+]1C` stands 0.9; under `CCC(C(=O)O)C(=O)N1CCCCC1` (stereo not given), 3.86; under `O=C(O)[c+]1cccccc1`, 3.29.

`O=[N+]([O-])c1cccc(NC=S)c1` gave a pKa of 10.3. On to `COc1cccc(NS(=O)(=O)c2ccccc2)c1`, for which the pKa came out at 7.95.

For `CC1(C)CC(O)[N+](C)(C)C1` (stereo not given), the pKa was found to be 8.7. Same read-out and setting: under `Cc1ccc(S(=O)(=O)N[C@@H](CCC(N)=O)C(=O)[O-])cc1` stands 11.8. Compound `NCc1ccccc1S(N)(=O)=O` registered a pKa of 10.1. `O=C(O)/C=C/C(=O)CC(=O)CC(=O)O`: the pKa came out at 3.6.

The data set is the same for the next values; noted with them: basic group.
Compound `COc1ccc(/C=N/c2ncc3nc[nH]c3n2)cc1` returned a pKa of 3.86. `Nc1nc([S-])[nH+]c([O-])c1C1=CCCCC1` gave a pKa of 7.11. `C1CNC1` displayed a pKa of 11.3.

The compound `Cc1ccc(S(=O)(=O)[N-]CCC(=N)N(C)C)cc1` displayed a pKa of 11.4. `COC(=O)C(N)Cc1c[nH]cn1` (stereo not given) returned a pKa of 7.35. In the case of `CCC(N)(CC)CC`, the pKa was 10.9. In the case of `NNC(=O)C[NH3+]`, the pKa was 2.38. The compound `CC[NH+](CC)CCNc1cc(C)nc(N)n1` registered a pKa of 7.6.

`CC[NH+](CC)CCNc1cc(Nc2ccc(Cl)cc2)nc(C)n1` had a pKa of 5.42. The same measure, in the same setting: under `c1c[nH]c(P(c2ncc[nH]2)c2[nH]cc[nH+]2)n1` stands 6.59; under `CCCCCNN`, 6.25; under `CC(=O)c1ccc(O)c2ncccc12`, 4. As for `C[C@@H](C=C(c1ccccc1)c1ccccc1)N(C)C`, the pKa came out at 9.26. Regarding `CCCC(N)C(=O)[O-]` (stereo not given), the pKa amounted to 9.86.

`O=C([O-])[C@@H]1O[C@H](Oc2cccc3cccnc23)[C@@H](O)[C@H](O)[C@H]1O`: the pKa was 4.62. `CCNCCC(=O)[O-]` gave a pKa of 10.6. On to `NCCCCN`, for which the pKa stood at 10.6. The compound `CC(O)CN(Cc1ccccc1)CC(C)O` (stereo not given) yielded a pKa of 7.5. Same read-out and setting: under `[NH3+]CC(=O)N[C@@H](Cc1c[nH]cn1)C(=O)[O-]` stands 6.77; under `[O-]c1cnccn1`, 8.23; under `Cc1cc([N+](=O)[O-])cc(C)c1N`, 0.98.

The compound `Nc1ccnnc1` came in with a pKa of 6.69. Compound `Cn1ncc2c(Nc3ccccc3)ncnc21` displayed a pKa of 3.53. Compound `NCc1ccccc1S(N)(=O)=O` registered a pKa of 8.53. With `Cc1cc(-c2ccccc2)nnc1NCC[NH+]1CCOCC1`, the pKa is 4.

`CC(=O)c1ccccc1N`: the pKa was determined as 2.31. The compound `CNNC1CC[NH+](C)CC1` yielded a pKa of 5.95. `Cc1nnc(C)c(C)n1` registered a pKa of 2.85. The compound `CC[NH+](CC)CCCC(C)Nc1cc(OC)cc2cccnc12` (stereo not given) displayed a pKa of 3.63.
